The subject of one experiment is Jurkat. The experiment is described as follows: Cellular activity was measured by an IL-2 luciferase reporter gene assay on a Jurkat human T cell line activated by anti-CD28 and anti-TCR antibodies. It counts as functional, cell-based. In general terms: Reporter assays use an easily measured gene product as a stand-in for the process of interest.
Experiment [1] concerns the target T1, Tyrosine-protein kinase ZAP-70 (Homo sapiens, UniProt P43403).
T1 sequence (P43403 whole entry): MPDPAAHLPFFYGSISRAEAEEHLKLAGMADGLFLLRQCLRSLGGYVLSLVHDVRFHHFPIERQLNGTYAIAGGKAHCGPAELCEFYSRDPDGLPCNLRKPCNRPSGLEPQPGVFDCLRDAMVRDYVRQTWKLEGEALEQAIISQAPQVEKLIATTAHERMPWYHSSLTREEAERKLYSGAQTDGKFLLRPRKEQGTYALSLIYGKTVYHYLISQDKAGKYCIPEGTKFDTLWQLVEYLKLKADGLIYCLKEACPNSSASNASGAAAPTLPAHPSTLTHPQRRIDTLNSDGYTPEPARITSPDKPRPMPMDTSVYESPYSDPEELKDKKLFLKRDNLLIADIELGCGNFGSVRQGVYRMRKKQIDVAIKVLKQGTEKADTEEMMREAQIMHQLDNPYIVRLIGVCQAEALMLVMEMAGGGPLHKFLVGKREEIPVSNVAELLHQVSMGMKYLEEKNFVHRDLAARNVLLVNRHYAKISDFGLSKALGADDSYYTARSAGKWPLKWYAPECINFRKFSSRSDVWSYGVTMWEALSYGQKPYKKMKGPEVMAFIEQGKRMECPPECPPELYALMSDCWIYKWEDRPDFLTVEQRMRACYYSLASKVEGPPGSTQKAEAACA
Put plainly: Antagonistic activity against SH2 domain of Zeta-chain (TCR) associated protein kinase, ZAP-70. In kind it is functional.

Data on four compounds can be found in ChEMBL document CHEMBL1159183, “Non-peptide itam mimics as ZAP-70 antagonists” (Bioorg Med Chem Lett, 1997).

SMILES strings stand for the structures.

`CCCCCC(=O)N(Cc1ccc(C(F)(F)P(=O)(O)O)cc1)[C@H]1CC[C@H]2[C@@H]3CCc4cc(OCCC)ccc4[C@H]3CC[C@]12C`: the IC50 (commonly the concentration needed to halve the response being measured) in the experiment with Jurkat amounted to 900 nM; in experiment [1], 1900 nM.

Turning to `CCCCCC(=O)N(Cc1ccc(CP(=O)(O)O)cc1)[C@H]1CC[C@H]2[C@@H]3CCc4cc(OCCC)ccc4[C@H]3CC[C@]12C`, the IC50 in the experiment on Jurkat amounted to 3600 nM; in experiment [1], 3200 nM.

For the compound `CCCCCC(=O)N(Cc1ccc(CP(=O)(O)O)cc1)[C@H]1CC[C@H]2[C@@H]3CCc4cc(OCCCOc5ccc6c(c5)CC[C@@H]5[C@@H]6CC[C@]6(C)[C@@H](N(Cc7ccc(CP(=O)(O)O)cc7)C(=O)CCCCC)CC[C@@H]56)ccc4[C@H]3CC[C@]12C`, the IC50 in the experiment on Jurkat was 26500 nM; in experiment [1], 320 nM.

Take `CCCCCC(=O)N(Cc1ccc(C(F)(F)P(=O)(O)O)cc1)[C@H]1CC[C@H]2[C@@H]3CCc4cc(OCCCOc5ccc6c(c5)CC[C@@H]5[C@@H]6CC[C@]6(C)[C@@H](N(Cc7ccc(C(F)(F)P(=O)(O)O)cc7)C(=O)CCCCC)CC[C@@H]56)ccc4[C@H]3CC[C@]12C`: the IC50 in the experiment with Jurkat worked out at 1900 nM; in experiment [1] it was 250 nM.
